Test results: PMC7794376 (Nature Communications, 2021)
Values after ≈ are worked out from the molar mass of the structure shown. Values joined by “and” are separate entries in the source; they are usually repeats but may differ in a detail not shown here. Identical values can stand only once. Like-named read-outs stand apart in the source and are kept apart here.

Tests used:
MtbCoaBC [1] = molecular target: T1, MtbCoaBC (Mycobacterium tuberculosis, UniProt P9WNZ1); assay: biochemical; format: biochemical; settings: for Activity R3 / Activity R1: slope of absorbance at 360 nm vs time (s)
M. tuberculosis H37Rv = assay: MIC determination in different media; format: cell-based; settings: Mycobacterium tuberculosis, read-out: Minimum inhibitory concentration (MIC)
[2] = tested on: M. tuberculosis coaBC Tet-OFF conditional knockdown; format: cell-based, Mycobacterium tuberculosis; settings: GAST/Fe minimal media
MtbCoaBC [3] = molecular target: T1, MtbCoaBC; assay: CMP quantification assay (UPLC), second half of CoaB reaction, variable L-cysteine; format: biochemical; settings: for uM CMP/uM protein.s-1 (rate of CMP formation): MtbCoaBC 32nM, replicates R1-R3
MtbCoaBC [4] = molecular target: T1, MtbCoaBC; assay: High-throughput end-point pyrophosphate quantification assay (Biomol Green); format: biochemical; settings: MtbCoaB activity; end-point, 2 µM CTP, 40 µM L-cysteine, 30 µM PPA; read-out: IC50 biomol green assay
MtbCoaBC [5] = molecular target: T1, MtbCoaBC; assay: Competition assays, first half of CoaB reaction (EnzChek, variable CTP or PPA); format: biochemical; settings: for mode of inhibition: in words
[6] = inhibitor concentration 1 (log 0), unit not shown, three replicates
[7] = inhibitor concentration 2 (log 0.30103), unit not shown, three replicates

T1 sequence (P9WNZ1 whole entry): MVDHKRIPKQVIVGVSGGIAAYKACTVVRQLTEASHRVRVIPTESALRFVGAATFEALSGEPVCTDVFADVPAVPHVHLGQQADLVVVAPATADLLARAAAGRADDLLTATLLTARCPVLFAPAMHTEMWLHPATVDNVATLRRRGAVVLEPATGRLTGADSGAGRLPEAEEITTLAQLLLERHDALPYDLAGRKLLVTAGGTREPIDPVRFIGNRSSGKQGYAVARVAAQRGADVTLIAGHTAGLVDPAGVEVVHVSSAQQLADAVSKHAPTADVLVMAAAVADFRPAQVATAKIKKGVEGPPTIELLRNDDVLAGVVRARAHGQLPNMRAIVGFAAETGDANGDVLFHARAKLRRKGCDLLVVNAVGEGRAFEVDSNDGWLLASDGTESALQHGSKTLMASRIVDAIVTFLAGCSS

O=c1cc(-c2ccc(O)c(O)c2)oc2cc(O)c(O)cc12 [compound 2b]
activity at 0.015625 µM (MtbCoaBC [1]; 0.015625 uM 2b, replicate R3, relative to average DMSO CT, read-out: Activity % R3): 89.7% | Activity R3 (MtbCoaBC [1]; 0.015625 uM 2b, replicate R3): 0.0001672 | inhibition at 0.03125 µM (MtbCoaBC [1]; 0.03125 uM 2b, replicate R1, read-out: Inhibition % R1): 20.2% | activity at 0.03125 µM (MtbCoaBC [1]; 0.03125 uM 2b, replicate R1, relative to average DMSO CT, read-out: Activity % R1): 79.8% | Activity R1 (MtbCoaBC [1]; 0.03125 uM 2b, replicate R1): 0.0001487 | inhibition at 0.03125 µM (MtbCoaBC [1]; 0.03125 uM 2b, replicate R2, read-out: Inhibition % R2): 19.2% | activity at 0.03125 µM (MtbCoaBC [1]; 0.03125 uM 2b, replicate R2, relative to average DMSO CT, read-out: Activity % R2): 80.8% | inhibition at 0.03125 µM (MtbCoaBC [1]; 0.03125 uM 2b, replicate R3, read-out: Inhibition % R3): 19.4% | activity at 0.03125 µM (MtbCoaBC [1]; 0.03125 uM 2b, replicate R3, relative to average DMSO CT, read-out: Activity % R3): 80.6% | Activity R3 (MtbCoaBC [1]; 0.03125 uM 2b, replicate R3): 0.0001503 | inhibition at 0.0625 µM (MtbCoaBC [1]; 0.0625 uM 2b, replicate R1, read-out: Inhibition % R1): 37.9% | activity at 0.0625 µM (MtbCoaBC [1]; 0.0625 uM 2b, replicate R1, relative to average DMSO CT, read-out: Activity % R1): 62.1% | Activity R1 (MtbCoaBC [1]; 0.0625 uM 2b, replicate R1): 0.0001157 | inhibition at 0.0625 µM (MtbCoaBC [1]; 0.0625 uM 2b, replicate R2, read-out: Inhibition % R2): 38.9% | activity at 0.0625 µM (MtbCoaBC [1]; 0.0625 uM 2b, replicate R2, relative to average DMSO CT, read-out: Activity % R2): 61.2% | inhibition at 0.0625 µM (MtbCoaBC [1]; 0.0625 uM 2b, replicate R3, read-out: Inhibition % R3): 38% | activity at 0.0625 µM (MtbCoaBC [1]; 0.0625 uM 2b, replicate R3, relative to average DMSO CT, read-out: Activity % R3): 62% | Activity R3 (MtbCoaBC [1]; 0.0625 uM 2b, replicate R3): 0.0001157 | inhibition at 0.25 µM (MtbCoaBC [1]; 0.25 uM 2b, replicate R1, read-out: Inhibition % R1): 95% | activity at 0.25 µM (MtbCoaBC [1]; 0.25 uM 2b, replicate R1, relative to average DMSO CT, read-out: Activity % R1): 4.96% | Activity R1 (MtbCoaBC [1]; 0.25 uM 2b, replicate R1): 0.000009249 | activity at 0.25 µM (MtbCoaBC [1]; 0.25 uM 2b, replicate R2, relative to average DMSO CT, read-out: Activity % R2): 4.35% | inhibition at 0.25 µM (MtbCoaBC [1]; 0.25 uM 2b, replicate R3, read-out: Inhibition % R3): 95.6% | activity at 0.25 µM (MtbCoaBC [1]; 0.25 uM 2b, replicate R3, relative to average DMSO CT, read-out: Activity % R3): 4.39% | Activity R3 (MtbCoaBC [1]; 0.25 uM 2b, replicate R3): 0.000008176 | inhibition at 0.5 µM (MtbCoaBC [1]; 0.5 uM 2b, replicate R1, read-out: Inhibition % R1): 97.8% | activity at 0.5 µM (MtbCoaBC [1]; 0.5 uM 2b, replicate R1, relative to average DMSO CT, read-out: Activity % R1): 2.19% | Activity R1 (MtbCoaBC [1]; 0.5 uM 2b, replicate R1): 0.000004090 | inhibition at 0.5 µM (MtbCoaBC [1]; 0.5 uM 2b, replicate R2, read-out: Inhibition % R2): 99% | activity at 0.5 µM (MtbCoaBC [1]; 0.5 uM 2b, replicate R2, relative to average DMSO CT, read-out: Activity % R2): 1% | inhibition at 0.5 µM (MtbCoaBC [1]; 0.5 uM 2b, replicate R3, read-out: Inhibition % R3): 97% | activity at 0.5 µM (MtbCoaBC [1]; 0.5 uM 2b, replicate R3, relative to average DMSO CT, read-out: Activity % R3): 3% | Activity R3 (MtbCoaBC [1]; 0.5 uM 2b, replicate R3): 0.000005588 | inhibition, IC50 MtbCoaBC 2b (MtbCoaBC [1]; [6]): 99.01 | reaction rate (slope of absorbance at 360 nm vs time), IC50 MtbCoaBC 2b (MtbCoaBC [1]; [6]): 0.000001846 and 0.000001860 and -0.000003443 | remaining activity relative to control, IC50 MtbCoaBC 2b (MtbCoaBC [1]; [6]): 0.9903 and 0.9976 and -1.847 | reaction rate (slope of absorbance at 360 nm vs time), IC50 MtbCoaBC 2b (MtbCoaBC [1]; [7]): -0.000001738 and -0.000001919 and -0.000000593 | remaining activity relative to control, IC50 MtbCoaBC 2b (MtbCoaBC [1]; [7]): -0.932 and -1.029 and -0.318 | IC50 (MtbCoaBC [1]; read-out: IC50 EnzChek MtbCoaBC): 80 ± 10 nM | inhibition at 0.25 µM (MtbCoaBC [1]; read-out: Inhibition % R2): 95.7% | MIC (M. tuberculosis H37Rv; 7H9/ADC/Glycerol): > 250 µM | MIC (M. tuberculosis H37Rv; 7H9/Cholesterol/Tyloxapol): > 250 µM | MIC (M. tuberculosis H37Rv; GAST/Fe): 50 µM (≈ 14.3 µg/mL) | sensitisation on incremental silencing of CoaBC [2]: did not sensitise M. tuberculosis further | uM CMP/uM protein.s-1 (rate of CMP formation) (MtbCoaBC [3]; 0.03125uM 2b, 31.25 uM cysteine): 0.1688 uM CMP/uM protein.s-1 and 0.1774 uM CMP/uM protein.s-1 and 0.1722 uM CMP/uM protein.s-1 | uM CMP/uM protein.s-1 (rate of CMP formation) (MtbCoaBC [3]; 0.03125uM 2b, 62.5 uM cysteine): 0.2177 uM CMP/uM protein.s-1 and 0.2245 uM CMP/uM protein.s-1 and 0.2185 uM CMP/uM protein.s-1 | uM CMP/uM protein.s-1 (rate of CMP formation) (MtbCoaBC [3]; 0.03125uM 2b, 250 uM cysteine): 0.2696 uM CMP/uM protein.s-1 and 0.2689 uM CMP/uM protein.s-1 and 0.2761 uM CMP/uM protein.s-1 | uM CMP/uM protein.s-1 (rate of CMP formation) (MtbCoaBC [3]; 0.03125uM 2b, 500 uM cysteine): 0.3036 uM CMP/uM protein.s-1 and 0.2988 uM CMP/uM protein.s-1 and 0.3158 uM CMP/uM protein.s-1 | uM CMP/uM protein.s-1 (rate of CMP formation) (MtbCoaBC [3]; 0.0625uM 2b, 31.25 uM cysteine): 0.139 uM CMP/uM protein.s-1 and 0.1432 uM CMP/uM protein.s-1 and 0.1461 uM CMP/uM protein.s-1 | uM CMP/uM protein.s-1 (rate of CMP formation) (MtbCoaBC [3]; 0.0625uM 2b, 62.5 uM cysteine): 0.1762 uM CMP/uM protein.s-1 and 0.1605 uM CMP/uM protein.s-1 and 0.1802 uM CMP/uM protein.s-1 | uM CMP/uM protein.s-1 (rate of CMP formation) (MtbCoaBC [3]; 0.0625uM 2b, 250 uM cysteine): 0.2128 uM CMP/uM protein.s-1 and 0.2019 uM CMP/uM protein.s-1 and 0.2135 uM CMP/uM protein.s-1 | uM CMP/uM protein.s-1 (rate of CMP formation) (MtbCoaBC [3]; 0.0625uM 2b, 500 uM cysteine): 0.2223 uM CMP/uM protein.s-1 and 0.2126 uM CMP/uM protein.s-1 and 0.2324 uM CMP/uM protein.s-1 | mode of inhibition (MtbCoaBC [3]; relative to L-cysteine, in words): uncompetitive inhibition | IC50 (MtbCoaBC [4]): 100 nM | mode of inhibition (MtbCoaBC [5]; relative to CTP): mixed inhibition | mode of inhibition (MtbCoaBC [5]; relative to PPA): uncompetitive inhibition | Inibition type (MtbCoaBC [5]; variable substrate CTP): Mixed | Ki (MtbCoaBC [5]; variable substrate CTP): 93 ± 18 nM
